Key:
primary rat hepatocytes = test: Hepatic metabolism in primary hepatocytes; details: 3 h
[1] = Liver distribution in Wistar rats; details: liver; for increase in Cmax on co-administration vs single treatment / exposure (AUC) of metabolite as share of the exposure of BBR / AUC ± SE / Cmax / Tmax / increase in AUC on co-administration vs single treatment: Wistar rats; for AUC ± SE / Cmax / half-life / Tmax: n = 5; for Cmax / half-life / Tmax: male, Wistar, rat, po; for Cmax: Cmax ± SE; for half-life: T1/2, Wistar rats
GK rats [2] = test: NFBG and FBG levels in GK rats, 6-week oral treatment; format: in vivo, rat; details: during 6-week treatment, TB-2 33.3, BBR 66.7, TB-2+BBR 100, metformin 200 mg/kg/day
Description: (§1) Four-week-old male GK rats were fed a high-fat diet, and age-matched non-diabetic Wistar rats were fed standard chow as the control group. Under these dietary conditions, blood glucose was estimated each week for 7 weeks in 12-h fasted rats using a portable glucometer (One Touch Sure Step Meter, Johnson & Johnson, United States) by drawing the blood from the tail vein. GK rats with fasting blood glucose levels (FBG) above 16.7 mM were considered as diabetic rats, and only uniformly diabetic rats were used in this study. […] All the drugs were suspended in 0.5% carboxymethylcellulose sodium (CMC-Na) solution for oral gavage (10 ml/kg) once per day (at 9:00) for 6 weeks. Simultaneously, the Wistar and vehicle groups received vehicle over the treatment period. Food consumption and body weight were measured every week throughout the experimental periods. Non-fasting blood glucose (NFBG) levels were determined by collecting blood samples from the tail vein (at 9:00), and FBG levels were determined after a 6-h fast (at 15:00) on days 0, 7, 14, 21, and 42. On day 28, an oral glucose tolerance test (OGTT) was performed after an overnight fast. […] On day 42, the rats were anesthetized with urethane (1.4 g/kg, dissolved in saline) after an overnight fast and were sacrificed to collect the liver, kidney, heart, and spleen. The organs were weighed after washing with saline and drying to calculate the organ coefficient, namely, the ratio between the weight of organs and the body in each rat.

GK rats [3] = test: Oral glucose tolerance test (OGTT) in GK rats on day 28; format: in vivo, rat; details: after 4 weeks of treatment, glucose 2 g/kg oral
Description: as §1

[4] = Body weight, food intake, organ coefficients and side effects in GK rats; format: in vivo, rat; details: day 42
Description: as §1

[5] = single oral BBR 66.7 mg/kg alone
[6] = single oral BBR+TB-2 (66.7+33.3 mg/kg)
[7] = single treatment (On TB-2 treatments)
[8] = 33.3 mg/kg, single oral BBR+TB-2 (66.7+33.3 mg/kg)
[9] = 66.7 mg/kg, single oral BBR 66.7 mg/kg alone

Compound	effect on BBR metabolism and the generation of M2–M5 (primary rat hepatocytes; BBR 1 μM, ABT 1 mM, TB-2 0.1 to 30 μM)	increase in Cmax on co-administration vs single treatment [1] [%]	exposure (AUC) of metabolite as share of the exposure of BBR ([1]; TB-2+BBR treatments) [%]	AUC ± SE [1, 5] [h ∗ ng/g]	AUC ± SE [1, 6]	exposure (AUC) of metabolite as share of the exposure of BBR [1, 7] [%]	Cmax [1, 8] [ng/g]	half-life [1, 8] [h]	Tmax [1, 8] [h]	Cmax [1, 9] [ng/g]	half-life [1, 9] [h]	Tmax [1, 9] [h]	increase in AUC on co-administration vs single treatment [1] [%]	FBG levels compared with the vehicle group (in words) (GK rats [2])	NFBG levels compared with the vehicle group (in words) (GK rats [2])	decrease in the AUC of blood glucose in OGTT vs vehicle (GK rats [3]) [%]	decrease of blood glucose levels in OGTT at 30 min vs vehicle (GK rats [3]) [%]	effect on organ coefficients (liver and kidney) vs vehicle [4]	metabolism after incubation (in words) (primary rat hepatocytes; midazolam 20 μM, TB-2 1 μM)
Nn1nnc2ccccc21 [ABT, 1-aminobenzotriazole]	completely abrogated																		
COc1c(O)ccc2cc3[n+](cc12)CCc1cc2c(cc1-3)OCO2 [M2, Thalifendine]		117	144	5935.8 ± 164.9	6651.2 ± 469.0 h ∗ ng/g	182	1660 ± 255	5	2	766 ± 54.3	6.8	4							
COc1ccc2cc3[n+](cc2c1OC)CCc1cc(O)c(O)cc1-3 [M3, demethyleneberberine]		174	12	234.5 ± 29.3	572.9 ± 34.7^∗∗∗ h ∗ ng/g	7	106 ± 18.2	6.2	2	38.8 ± 5.6	18.5	2	144						
COc1cc2c(cc1O)CC[n+]1cc3c(OC)c(OC)ccc3cc1-2 [M4, jatrorrhizine]		156	15	527.5 ± 25.0	690.8 ± 59.6^∗ h ∗ ng/g	16	200 ± 33.7	7	2	78.2 ± 10.7	9.7	2	31						
COc1cc2c(cc1O)-c1cc3ccc(OC)c(OC)c3c[n+]1CC2 [M5, columbamine]			11	362.8 ± 18.7	489.2 ± 59.2^∗ h ∗ ng/g	11	184 ± 38.4	6	2	89.4 ± 15.6	9.5	2	35						
CN(C)C(=N)N=C(N)N [metformin]														significantly decreased	did not significantly decrease	11.3	30	no effect	
Cc1ncc2n1-c1ccc(Cl)cc1C(c1ccccc1F)=NC2 [midazolam]																			significantly metabolized

Source: article PMC6353801, “Enhanced Anti-diabetic Effect of Berberine Combined With Timosaponin B2 in Goto-Kakizaki Rats, Associated With Increased Variety and Exposure of Effective Substances Through Intestinal Absorption” (Frontiers in Pharmacology, 2019)
